# Results from paper PMC3666173 (Basic research in cardiology, 2012).
# pIC50: −log10 of the molar value. No end group written: not given here.
# What was measured:
# [1] = target: Cx43 hemichannels (C6-Cx43 cells) (Homo sapiens, UniProt P17302); experiment: [Ca2+]i-triggered; assay type: cell-based
# C6-Cx43 cells = conditions: A23187 2.2 μM, 5 min; ref [19], [49]; cited from earlier work
# [2] = test system: pannexin-1 (Panx1) hemichannels (C6-Panx1 cells); experiment: High [K+]e-triggered ATP release in C6-Panx1 cells; assay type: cell-based; conditions: [K+]e = 143 mM, carbenoxolone 10 μM, 30 min, 10Panx1 200 μM
# Chain of Cx43 hemichannels (C6-Cx43 cells) (P17302 whole entry): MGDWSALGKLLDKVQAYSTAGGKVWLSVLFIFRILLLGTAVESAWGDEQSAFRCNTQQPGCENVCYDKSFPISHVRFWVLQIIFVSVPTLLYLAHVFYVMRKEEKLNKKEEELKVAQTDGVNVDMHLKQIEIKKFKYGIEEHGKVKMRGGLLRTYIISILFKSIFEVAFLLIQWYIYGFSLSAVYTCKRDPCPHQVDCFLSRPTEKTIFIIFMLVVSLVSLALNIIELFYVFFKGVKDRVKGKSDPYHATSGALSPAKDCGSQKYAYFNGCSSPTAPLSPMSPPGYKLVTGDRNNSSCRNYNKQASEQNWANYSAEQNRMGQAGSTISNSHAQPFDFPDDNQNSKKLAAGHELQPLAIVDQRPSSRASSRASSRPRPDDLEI
compound,measurement,setting,value
YGRKKRRQRRRKQIEIKKFK,pIC50,[1],~5.15
CNc1ccc2oc(C[C@H]3O[C@@]4(CC[C@H]3C)O[C@H]([C@H](C)C(=O)c3ccc[nH]3)[C@H](C)C[C@H]4C)nc2c1C(=O)O [A23187],[Ca2+]i-triggered ATP release,"[1]; Ca2+ ionophore, 2.2 μM, 5 min, C6-Cx43 vs C6-pLTR, n = 12",triggered significant ATP release in C6-Cx43 but not in C6 cells stably transfected with the empty vector
same,transient elevation of [Ca2+]i,C6-Cx43 cells,~ 500 nM
CC1(C)[C@@H](OC(=O)CCC(=O)O)CC[C@]2(C)[C@H]3C(=O)C=C4[C@@H]5C[C@@](C)(C(=O)O)CC[C@]5(C)CC[C@@]4(C)[C@]3(C)CC[C@@H]12 [carbenoxolone],high [K+]e-triggered ATP release,[2]; n = 12,suppressed
same,high [K+]e-triggered ATP release,"[2]; n = 12, listed as Cbx",blocked
